Active and inactive are the calls of the source. The rule behind the calls is not given here. Peptide text beside a SMILES is read from it.
Assays:
Homo sapiens [1] = species on record: Homo sapiens; assay: Ratio of IC50 of peptide P198 for human MHC class II HLA-DQ2.5 to IC50 of peptide for human MHC class II HLA-DQ2.5
Homo sapiens [2] = species on record: Homo sapiens; assay: Binding affinity to MHC class II HLA-DQ2.5 in Epstein-Barr virus-transformed human B lymphocyte

Ratio IC50 (Homo sapiens [1])	Activity (Homo sapiens [2])	Structure (SMILES)
0.93	Active	CC(C)C[C@H](NC(=O)[C@H](CCC(=O)O)NC(=O)[C@H](CCC(=O)O)NC(=O)[C@H](CCC(=O)O)NC(=O)[C@H](CCCCN)NC(=O)[C@H](CCC(=O)O)NC(=O)[C@H](C)NC(=O)[C@H](C)NC(=O)[C@@H](N)Cc1ccccc1)C(=O)N[C@@H](CCCNC(=N)N)C(=O)O (H-FAAEKEEELR-OH)
–	Active	CC(C)C[C@H](NC(=O)[C@H](C)NC(=O)[C@H](C)NC(=O)[C@@H](N)Cc1ccccc1)C(=O)N[C@@H](CCCCN)C(=O)N[C@@H](CCC(=O)O)C(=O)N[C@@H](CCC(=O)O)C(=O)N[C@@H](CCC(=O)O)C(=O)N[C@@H](Cc1ccc(O)cc1)C(=O)N[C@@H](CCCNC(=N)N)C(=O)O (H-FAALKEEEYR-OH)
–	Active	CC(C)[C@H](NC(=O)[C@H](CCCCN)NC(=O)[C@H](CCC(=O)O)NC(=O)[C@H](C)NC(=O)[C@H](C)NC(=O)[C@@H](N)Cc1ccccc1)C(=O)N[C@@H](CCC(=O)O)C(=O)N[C@@H](CCC(=O)O)C(=O)N[C@@H](Cc1ccccc1)C(=O)N[C@@H](CCCNC(=N)N)C(=O)O (H-FAAEKVEEFR-OH)

Source: ChEMBL document CHEMBL1765021, “Assessing high affinity binding to HLA-DQ2.5 by a novel peptide library based approach” (Bioorg Med Chem, 2011)
